The source of these data is paper PMC2633172 (The FASEB Journal, 2009).

Bridge positions count the residues as written; N and C are the ends. Ends that are not written are not given here. * marks the point of attachment. Biotin = O=C1N[C@H]2[C@H](CS[C@H]2CCCCC(=O)*)N1

The subject of assay [1] is γ-IFN stimulated U937 cells. Description: Inhibition of superoxide burst triggered by bead-peptide 33 complexes. Type of assay: cell-based, human. The conditions noted are these: soluble peptide; submaximal concentration of bead-peptide 33 complexes.
Assay [2] concerns γ-IFN stimulated U937 cells. Description: Phagocytosis of fluorescent bead complexes by flow cytometry. The class given is cell-based, human. The conditions noted are these: FITC-labeled bead complexes.
In assay [3] the target is Human FcγRI extracellular domain (human, UniProt P12314 16-292). Description: AlphaScreen or HTRF.
Sequence of Human FcγRI extracellular domain (P12314 16-292): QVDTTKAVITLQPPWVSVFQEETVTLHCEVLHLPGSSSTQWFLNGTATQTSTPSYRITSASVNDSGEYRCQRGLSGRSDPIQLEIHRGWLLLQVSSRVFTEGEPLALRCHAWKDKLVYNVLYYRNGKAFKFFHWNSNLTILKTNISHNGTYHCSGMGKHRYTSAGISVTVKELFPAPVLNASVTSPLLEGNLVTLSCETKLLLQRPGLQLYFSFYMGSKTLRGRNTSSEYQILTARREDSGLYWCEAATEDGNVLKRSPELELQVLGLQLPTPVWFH

Take AQTDTSLMLPLLGSDEE [peptide 22 S4S13]: the “ability to prevent receptor-mediated functions triggered by multimeric peptide 33” value in assay [1] is given as “only weakly able or unable”.

For the molecule “TDT C LMLPLLLG C DEE (disulfide) [peptide 22]”, the “internalized fluorescence relative to bead-IgG1 complexes” value in assay [2] (2 h at 37°C, trypan blue quench, 10,000 cells) was ≤ 2 fold. In addition, the “bead-peptide signal intensity in the presence of IgG1” value in assay [2] (with IgG1 (67 μM)) is given as “reduced to background”.

B1: cyclic peptide 30 (peptide)
peptide: H-AQKDPCTRWAMLLGCDGEK(Biotin)
modifications: disulfide 6-15 (inferred)
In the case of B1, the binding result in assay [3] is “binds”.

B2: cyclic peptide 33 (peptide)
peptide: H-AQVNSCLLLPNLLGCGDDK(Biotin)
modifications: disulfide 6-15 (inferred)
For B2, the binding result in assay [3] was “binds”.
